Source: ChEMBL document CHEMBL1155713, “Three new peroxides from the sponge Plakinastrella species” (2001)
≈ marks a conversion by molar mass, not a printed value.

Legend:
Type in all cases: functional
Candida albicans [1] = test: Antifungal activity against Candida albicans in RPMI medium
Candida albicans [2] = test: Antifungal activity against Candida albicans in Sabouraud dextrose broth
Aspergillus fumigatus = test: Antifungal activity against Aspergillus fumigatus

## CC/C=C/C=C/C=C/CCCCCCCC[C@@]1(C)C[C@](C)(CC(=O)O)OO1 [EPIPLAKINIC ACID F]
Candida albicans [1]
  MIC: 6.25 µg/mL (≈ 16.5 µM)
Candida albicans [2]
  MIC: 25 µg/mL (≈ 66 µM)
Aspergillus fumigatus
  IC90: 25 µg/mL (≈ 66 µM)

## CC/C=C/C=C/C=C/CCCCCCCC[C@]1(C)C[C@](C)(CC(=O)O)OO1 [PLAKINIC ACID F]
Candida albicans [1]
  MIC: 3.1 µg/mL (≈ 8.19 µM)
Candida albicans [2]
  MIC: 25 µg/mL (≈ 66 µM)
Aspergillus fumigatus
  IC90: 25 µg/mL (≈ 66 µM)

## C[C@@]1(CCCCCCCCCc2ccc(O)cc2)C[C@]2(C)OC(=O)C[C@@H]2OO1 [PLAKORTOLIDE F]
Candida albicans [1]
  MIC: > 125 µg/mL
Candida albicans [2]
  MIC: > 125 µg/mL
Aspergillus fumigatus
  IC90: > 125 µg/mL
